# Assay: gradient 5% acetonitrile 3 min, to 50% in 2 min, to 85% in 15 min, held 3 min, 100 µL/min
# Conditions: column: Zorbax Extend-C18 2.1 x 50 mm; eluents: water / acetonitrile, 0.1% formic acid
# Outline: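 Using water and acetonitrile that each contained 0.1% formic acid, mixtures of ~100 pure standards were separated at 100 μL/min on a Zorbax Extend-C18 column (2.1 × 50 mm, 1.8 μm). The HPLC fed a quadrupole time-of-flight mass spectrometer working in positive and negative ionization mode, with dead and dwell volumes of 40 μL and 900 μL. Data were acquired over 3 months. Retention time was read from computationally picked adduct peaks after manual inspection of each.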
row,SMILES,RP-LC retention time
1,Fc1ccc(-c2noc(-c3ccc(NC4CC4)nc3)n2)cc1,901 s
2,O=C(NCc1ccc(Cl)cc1)C1CCCN(c2ncnc3c2nc2n3CCCCC2)C1 (stereo not given),812 s
3,Cc1cc(S(=O)(=O)N2CC(Cc3nncn3C3CCCC3)C2)ccc1Cl,785 s
4,Cc1ccc(Nc2c(-c3ccc(N4CCOCC4)cc3)nc3ccc(C)cn23)cc1,739 s
5,CCc1nnc(NS(=O)(=O)c2ccc(N)cc2)s1,711 s
6,CC(=O)N1c2ccc(S(=O)(=O)N3CCCC3C(=O)Nc3cc(C)ccn3)cc2CC1C (stereo not given),617 s
7,CCNc1nc(C)cc(N2CCN(C(=O)Nc3cc(OC)cc(OC)c3)CC2)n1,657 s
8,Cc1sc(NC(=O)c2ccc(Br)cc2)nc1-c1ccc2c(c1)NC(=O)C(C)O2 (stereo not given),1040 s
9,O=C1NCCCn2cc(S(=O)(=O)N(Cc3ccccc3)c3ccccc3)cc21,808 s
10,Cn1nc(N)c2ncc(C(Cl)(Cl)Cl)nc21,876 s
11,O=c1cccc2n1CC1CC2CN(Cc2nnc(-c3cccc(Br)c3)o2)C1 (stereo not given),803 s
12,Cc1nc(N2CCN(C(=O)COc3ccc(Cl)cc3Cl)CC2)cc(-n2cccn2)n1,894 s
13,O=C(Nc1cccc(Cl)c1)N1CCCC1c1nc(-c2ccc(F)cc2F)no1 (stereo not given),1030 s
14,CCOc1cccc(-c2noc(Cc3nnc(-c4ccc(F)cc4)o3)n2)c1,1080 s
15,COc1cccc(N2CCN(S(=O)(=O)c3cccc(-c4nc(-c5ccccc5)no4)c3)CC2)c1,1290 s
16,CCN1CCN(c2cc(C)nc3nc(-c4ccc(C(C)(C)C)cc4)nn23)CC1,677 s
17,CCn1c(C)c(-c2nc(C3CC3)no2)c(S(=O)(=O)N2CCC(C)CC2)c1C,904 s
18,O=C(COc1ccccc1Cl)Nc1ccc(-c2nc(-c3ccccc3)no2)cc1,1280 s
19,CCOc1ccc(NC(=O)N2CCN(CCn3c(C(C)C)nc4cccnc43)CC2)cc1,610 s
20,CC(C)c1nc(-c2ccc(OC3CCNC3)cc2)no1 (stereo not given),631 s
21,Cn1nc(C(=O)N2CCCCC2)c2c1CCN(C(=O)CCC(=O)NC1CCCCCC1)C2,728 s
22,CCOC(=O)c1cnc2nc(C)ccc2c1Nc1ccc(F)cc1F,716 s
23,CC(C)C(=O)N1CCc2c(c(C(=O)N3CCC(C(=O)N4CCCCCC4)CC3)nn2C)C1,656 s

# Second part, the molecule after the results:
row,RP-LC retention time,SMILES
1,684 s,C=CCn1c(C)c(CC(=O)NC2CCCC2)c(=O)n2nc(-c3ccccc3)nc12
2,798 s,CCOC(=O)C1CCN(C(=O)c2ccc3c(c2)CCCN3S(=O)(=O)CC)CC1
3,530 s,COc1ccc(S(=O)Cc2ccc(C(=O)NCCN(C)C)o2)cc1 (stereo not given)
4,957 s,O=C1[C@H]2CN(Cc3cc(F)cc(F)c3)C[C@H]2C(=O)N1CCc1ccccc1
5,608 s,CC(C)C(=O)Nc1ccc(-n2cnc(C(=O)N3CCN(Cc4ccccc4)CC3)c2)nc1
6,765 s,O=C(NCCc1ccccc1)N1CCN(c2ncccc2-c2nnc(C3CC3)o2)CC1
7,600 s,CCOc1ccc2nc(C(=O)N3CCN(c4ccccn4)CC3)cn2n1
8,838 s,O=C(NC1CCN(c2cc(-c3ccccc3)[nH]n2)CC1)c1ccc(Cl)s1
9,583 s,Cc1cc2c(cc1S(=O)(=O)N(C)CC(=O)N1CCN(c3ccccn3)CC1)OCC(=O)N2
10,879 s,CCCCNC(=O)C(=O)NCC1OCCc2ccccc21 (stereo not given)
11,709 s,CCOc1ccc(S(=O)(=O)N2CCCC(C(=O)NCCOC)C2)cc1 (stereo not given)
12,935 s,CCc1nc(-c2csc(S(=O)(=O)N3CCC(C(=O)NCc4ccc(F)cc4)CC3)c2)no1
13,716 s,CCCNC(=O)N1C[C@@H]2C(=O)N(CCc3ccccc3)C(=O)[C@@H]2C1
14,906 s,CN1CCCc2cc(C(=O)NCc3ccc(F)cc3)sc21
15,669 s,CCSc1nnc(NC(=O)CNC(=O)c2c[nH]c3ccccc23)s1
16,761 s,COc1ccc(N2CC(NC(=O)C(=O)c3c[nH]c4ccccc34)CC2=O)cc1 (stereo not given)
17,1010 s,O=C(NCc1ccc(F)cc1)N1CCN(c2nc3ccccc3nc2C(F)(F)F)CC1
18,902 s,CCc1nc(OCC(=O)NCc2ccc3c(c2)OCO3)c2ccccc2n1
19,564 s,NCCNc1ccc(NCCN)c2c1C(=O)c1ccncc1C2=O
20,970 s,CC(C)c1nc(N2CCCC2=O)sc1C(=O)NCc1ccc(F)cc1
21,896 s,Cc1[nH]c(C(=O)N2CCCC(C(=O)NC(C)c3ccccc3)C2)c(C)c1C(=O)OC(C)C (stereo not given)
22,948 s,CCn1cc(S(=O)(=O)N2CCC(CCOc3ccccc3F)C2)cn1 (stereo not given)

# Source: the METLIN SMRT retention time set (Domingo-Almenara et al. 2019)
